Where a SMILES comes first, the peptide text is derived from it. [ ]: non-standard residue; d: D form. The star is where a group is joined. AMC = Cc1cc(=O)oc2cc(N*)ccc12
Key:
[1] = target: proteinase-activated receptor 2 (human (endogenous in HEK-293, THP-1 and primary monocytes/macrophages)) (UniProt P55085)
[2] = target: T1, PAR2 (proteinase-activated receptor 2) (Homo sapiens, UniProt P55085); experiment: calcium signaling (Fluo-4 AM), HEK-293 cells; format: cell-based; conditions: antagonist; pre-treatment, then 0.15 µM 2fLI as agonist; 37 °C
T1 construct: gene F2RL1; endogenous full-length receptor in HEK-293 cells; no response to 2fLI in CRISPR PAR2-knockout HEK-293
T1 sequence (P55085 26-397): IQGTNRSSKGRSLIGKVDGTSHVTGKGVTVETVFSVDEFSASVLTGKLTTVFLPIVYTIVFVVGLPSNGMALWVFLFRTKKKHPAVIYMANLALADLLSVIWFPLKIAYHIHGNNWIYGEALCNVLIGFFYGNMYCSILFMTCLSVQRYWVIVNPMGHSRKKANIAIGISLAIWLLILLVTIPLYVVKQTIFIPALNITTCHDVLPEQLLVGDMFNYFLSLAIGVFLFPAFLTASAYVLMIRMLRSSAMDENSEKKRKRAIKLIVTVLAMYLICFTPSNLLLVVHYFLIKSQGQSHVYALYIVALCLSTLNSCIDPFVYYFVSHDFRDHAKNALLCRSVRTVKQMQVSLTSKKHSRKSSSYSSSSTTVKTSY

[3] = target: T2, Tryptase-6 (PRSS33) (Homo sapiens, UniProt Q8NF86); experiment: fluorogenic cleavage, antibody pull-down from synovial fluid; format: biochemical; conditions: 37 °C; ex 380 nm, em 460 nm; enzyme captured by plate-immobilized antibody
T2 construct: native active enzyme (~25 kDa) captured by anti-tryptase-6 antibody from patient synovial fluid
T2 sequence (Q8NF86 37-280): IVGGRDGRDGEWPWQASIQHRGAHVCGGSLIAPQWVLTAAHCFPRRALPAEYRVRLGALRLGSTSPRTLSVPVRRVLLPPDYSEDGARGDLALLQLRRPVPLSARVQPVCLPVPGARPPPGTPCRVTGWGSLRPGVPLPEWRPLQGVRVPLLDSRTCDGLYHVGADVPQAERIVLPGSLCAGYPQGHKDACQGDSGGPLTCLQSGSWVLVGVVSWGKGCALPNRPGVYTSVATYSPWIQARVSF

How did the calcium signaling (Fluo-4 AM) in HEK-293 cells, concentration-effect curve of 2fLI, EC50 [1] turn out when 2-furoyl-LIGRLO-NH2 (peptide) was run?
The calcium signaling (Fluo-4 AM) in HEK-293 cells, concentration-effect curve of 2fLI, EC50 was 0.14 µM.

Which IC50 [2] does the source give for CC(C)(C)c1cc(-c2ccc(F)cc2)nn2cc(C(=O)N3CCNC(=O)C3(C)C)nc12 [I-191] here?
Its IC50 is 2.1 nM.

Cc1cc(=O)oc2cc(NC(=O)[C@H](CCCCN)NC(=O)[C@H](CC(C)C)NC(=O)[C@H](N)C(C)C)ccc12 [VLK-AMC] (H-[dV]-Leu-Lys-{AMC}) was tested. Which “fluorogenic cleavage, antibody pull-down from synovial fluid” value [3] did it give?
Its value is “Tryptase-6 activity increased when both substrates were added”.
